In patent US20110200558A1, “Treatment or Prevention of Hepatitis C with Immunomodulator Compounds” (priority 2008, published 2011):
Entries after “also recorded” stand apart in the source; their conditions may differ. Like-named read-outs stand apart in the source and are kept apart here.

Columns and labels:
HCV [1] = conditions: within 5 days of therapy; cited from earlier work
HCV [2] = conditions: cited from earlier work
HCV [3] = conditions: higher doses (500-1500 mg/day); cited from earlier work
HCV genotype 1 [4] = conditions: cited from earlier work
HCV genotype 1 [5] = conditions: 1500-mg twice-daily, 14 days, treatment-naive; cited from earlier work
HCV genotype 1 [6] = conditions: 400 mg thrice daily, 14 days monotherapy, nonresponders to pegylated interferon alfa; cited from earlier work
HCV genotype 1 [7] = conditions: 400 mg thrice daily for 14 days with pegylated interferon alfa-2b, previous nonresponders; cited from earlier work
STAT-3 = conditions: cited from earlier work
spleen lymphocytes = conditions: cited from earlier work
[8] = tested on: Th1 cytokines IFN-g and IL-2, Th2 cytokines IL-4 and IL-10; conditions: cited from earlier work
[9] = Phase 2a dose ranging study of SCV-07: safety and tolerability; format: in vivo, human
Excerpt: (§1) Here we describe interim results from a phase 2a, proof of principle, multicenter, randomized, controlled, single-blind dose ranging study, which is evaluating the safety and antiviral effect of SCV-07 in non-cirrhotic subjects with genotype 1 chronic HCV infection. Subjects enrolled in the study must have relapsed to previous treatment with PEGylated interferon and ribavirin; therefore any change in HCV viral load of greater than 0.5 log could be considered a significant response.
(§2) Subjects are treated with 7 daily injections of SCV-07 (8 subjects per cohort) or saline (2 per cohort). […] Due to this apparent late response, a 30-day follow up visit was added for Cohort 3. Of the 4 subjects in this Cohort who have reached the 30-day visit, one has responded with a 1.2-log drop in HCV along with an increase in neopterin (see Table1).
Further clinical investigation into longer treatment duration or addition to other anti-viral agents appears warranted.

[10] = tested on: Cottontail papilloma virus; conditions: Cottontail papilloma virus in rabbits; cited from earlier work
Pichinde virus = Pichinde virus in guinea pigs; cited from earlier work
sheep red blood cells = conditions: immunization with sheep red blood cells; cited from earlier work
herpes virus HSV-2 = conditions: guinea pigs infected with herpes virus HSV-2; cited from earlier work
[11] = tested on: genotype 1 chronic HCV infection; assay: Phase 2a dose ranging study of SCV-07: HCV viral load; format: in vivo, human
Excerpt: as §1, §2

bone marrow cells = conditions: cited from earlier work
thymocyte and lymphocyte = conditions: in vitro; cited from earlier work
neopterin = assay: Phase 2a dose ranging study of SCV-07: plasma biomarker neopterin; format: in vivo, human; conditions: Cohort 3, 1.0 mg/kg (interim); single responding subject
Excerpt: as §1, §2
A plasma concentration of neopterin above 10 nmol/L represents a “stimulated” immune system. […] Increased levels of neopterin also are correlated with increased sustained viral responses against HCV, and so is very strong evidence for the use of SCV-07 in this disease. The timing of the increase is also of interest.

HCV [12] = assay: Combination treatment of hepatitis C patients, Examples 2-4; format: in vivo, human; conditions: Example 4: 0.1-2.0 mg/kg/day with STAT-C and/or ribavirin and/or pegylated interferon alpha-2b or alpha-2a, up to 48 weeks
Excerpt: Treatment, as in the examples above, results in achieving a sustained virological response (SVR) (which is accepted as cure and used as the efficacy endpoint for FDA approval), of 65-75%. This compares favorably with the current SOC SVR of 45-50%. This improved SVR is achieved in a regimen that has much less toxicity when compared to SOC (interferon sparing).

[13] = tested on: 5-FU-immune-suppressed animals; conditions: cited from earlier work
[14] = 1500 mg twice daily for 14 days
[15] = 3000 mg twice daily for 14 days
[16] = 4500 mg twice daily for 14 days

CCCCCOc1ccc(NC(=S)NC(=O)c2cccnc2)cc1C(F)(F)F [ACH-806]
drop in HCV RNA (HCV [1]): 2.38 log

COc1ccc2c(O[C@@H]3C[C@H]4C(=O)N[C@]5(C(=O)O)C[C@H]5/C=C\CCCCC[C@H](NC(=O)OC5CCCC5)C(=O)N4C3)cc(-c3csc(NC(C)C)n3)nc2c1 [BILN-2061]
antiviral activity, HCV genotype 1 (HCV [2]; HCV genotype 1): potent antiviral activity | virologic response, HCV genotype 2 and 3 patients (HCV [2]; HCV genotype 2 and 3): less pronounced and more variable | time of viral load reduction (HCV [2]; phase 1): ≤ 48 h

CNC(=O)c1c(-c2ccc(F)cc2)oc2cc(N(CCO)S(C)(=O)=O)c(C3CC3)cc12 [HCV-796]
drop in the HCV RNA viral load (HCV [3]): ~1.2 log

CC(C)C(=O)OC[C@@]1(N=[N+]=[N-])O[C@@H](n2ccc(N)nc2=O)[C@H](OC(=O)C(C)C)[C@@H]1OC(=O)C(C)C [R1626]
Mean HCV viral reduction (HCV genotype 1 [4]; 500 mg twice daily for 14 days): 0.3 log 10 | median HCV viral reduction (HCV genotype 1 [4]; 500 mg twice daily for 14 days): 0.2 log 10 | Mean HCV viral reduction (HCV genotype 1 [4]; [14]): 1.2 log 10 | median HCV viral reduction (HCV genotype 1 [4]; [14]): 0.8 log 10 | Mean HCV viral reduction (HCV genotype 1 [4]; [15]): 2.6 log 10 | median HCV viral reduction (HCV genotype 1 [4]; [15]): 2.7 log 10 | Mean HCV viral reduction (HCV genotype 1 [4]; [16]): 3.7 log 10 | median HCV viral reduction (HCV genotype 1 [4]; [16]): 4.1 log 10 | reduction in HCV RNA (HCV genotype 1 [5]): approximately 1.2 log

CC(C)(C)NC(=O)N[C@H](C(=O)N1C[C@H]2[C@@H]([C@H]1C(=O)NC(CC1CCC1)C(=O)C(N)=O)C2(C)C)C(C)(C)C (stereo partly shown) [SCH503034]
drop in HCV RNA from the baseline value (HCV genotype 1 [6]): approximately 2 log | reduction in HCV RNA (HCV genotype 1 [7]): 2.88 log

N[C@H](CCC(=O)N[C@@H](Cc1c[nH]c2ccccc12)C(=O)O)C(=O)O [SCV-07, γ-D-glutamyl-L-tryptophan]
STAT-3 dependent signaling / STAT3 activity (STAT-3): inhibition; also recorded: inhibit | Con-A-induced interleukin-2 (IL-2) production and IL-2 receptor expression by spleen lymphocytes (spleen lymphocytes): increases | Th2 cytokines IL-4 and IL-10 [8]: decreasing | production of the Th1 cytokines IFN-g and IL-2 [8]: increases | SAEs reported ([9]; all 3 dose groups): No SAEs were reported | discontinuation of treatment due to AEs ([9]; all 3 dose groups): no subject had to discontinue treatment due to AEs | tolerability ([9]; all 3 dose groups): well tolerated | changes in ALT from baseline ([9]; any of the subjects): No significant changes | survival [10]: increased survival | survival (Pichinde virus): increased survival | immunostimulatory effect (sheep red blood cells): strong immunostimulatory effect | recurrence (herpes virus HSV-2): decreased recurrence | HCV viral load response ([11]; Cohort 1, 0.01 mg/kg): no responses | subjects with decrease in viral load and increase in neopterin ([11]; Cohort 2, 0.10 mg/kg, day 14 follow up visit): 2 subjects | HCV viral load (log10 decrease) Day 30 ([11]; Cohort 3, 1.0 mg/kg (interim), 7 daily injections, single responding subject, 30-day visit): 1.2 log10 | drop in HCV ([11]; Cohort 3, one of 4 subjects at the 30-day visit): 1.2 log | expression of Thy-1.2 on bone marrow cells (bone marrow cells): stimulates expression | Con-A-induced thymocyte and lymphocyte proliferation (thymocyte and lymphocyte): increases | Neopterin (nmol/L) Day 30 (neopterin): 33 nmol/L | response against HCV (HCV [12]): improved response | immunostimulatory effect [13]: strong immunostimulatory effect
